This is an account of results in doi:10.1101/2025.08.20.670845v1 (biorxiv, 2025).

Structures are written as SMILES.

Assay in all cases: G-Flamp2 cAMP biosensor fluorescence in HeLa cells expressing the receptor
Format in all cases: cell-based

One test concerns the target T1, VdOctβ2 (Varroa destructor, UniProt A0A7M7KEY3).
T1 sequence (A0A7M7KEY3 1-439): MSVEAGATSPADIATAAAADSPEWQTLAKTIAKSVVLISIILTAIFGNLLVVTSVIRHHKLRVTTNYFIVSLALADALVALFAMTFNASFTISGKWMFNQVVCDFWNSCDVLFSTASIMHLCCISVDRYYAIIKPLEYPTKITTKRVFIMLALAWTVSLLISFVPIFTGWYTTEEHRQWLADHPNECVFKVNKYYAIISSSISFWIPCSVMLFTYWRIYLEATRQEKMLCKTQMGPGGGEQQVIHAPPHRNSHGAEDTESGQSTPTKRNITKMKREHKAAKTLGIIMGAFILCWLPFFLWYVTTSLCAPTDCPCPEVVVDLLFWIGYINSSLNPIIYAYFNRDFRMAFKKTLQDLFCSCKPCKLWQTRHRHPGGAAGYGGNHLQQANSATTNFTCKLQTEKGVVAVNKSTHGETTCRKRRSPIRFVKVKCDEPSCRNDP

The target in test [1] is T2, AgOctβ2R (AgOctβ2) (Anopheles gambiae, UniProt F5HKI1).
T2 sequence (F5HKI1 1-526): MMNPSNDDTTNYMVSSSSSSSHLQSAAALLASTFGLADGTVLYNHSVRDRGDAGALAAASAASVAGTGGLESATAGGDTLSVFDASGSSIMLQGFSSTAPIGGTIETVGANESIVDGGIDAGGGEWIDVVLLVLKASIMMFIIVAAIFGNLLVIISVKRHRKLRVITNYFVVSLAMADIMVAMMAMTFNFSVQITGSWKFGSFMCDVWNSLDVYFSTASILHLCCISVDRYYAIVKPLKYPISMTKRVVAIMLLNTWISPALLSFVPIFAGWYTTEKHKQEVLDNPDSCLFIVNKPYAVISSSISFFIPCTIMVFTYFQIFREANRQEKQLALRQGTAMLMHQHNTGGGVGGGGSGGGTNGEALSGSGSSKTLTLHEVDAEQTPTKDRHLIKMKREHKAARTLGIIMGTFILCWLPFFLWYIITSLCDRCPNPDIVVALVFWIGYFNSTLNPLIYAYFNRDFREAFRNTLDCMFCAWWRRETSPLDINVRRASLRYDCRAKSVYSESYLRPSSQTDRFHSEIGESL

The target in test [2] is T3, AgOctβ2R (AgOctβ2) (Anopheles gambiae, UniProt F5HKI1, N432C).
T3 sequence (F5HKI1 1-526 N432C): T2 sequence (F5HKI1 1-526)

The next test deals with T4, AmOctβ2 (Apis mellifera, UniProt A0A7M7GMY8).
T4 sequence (A0A7M7GMY8 1-438): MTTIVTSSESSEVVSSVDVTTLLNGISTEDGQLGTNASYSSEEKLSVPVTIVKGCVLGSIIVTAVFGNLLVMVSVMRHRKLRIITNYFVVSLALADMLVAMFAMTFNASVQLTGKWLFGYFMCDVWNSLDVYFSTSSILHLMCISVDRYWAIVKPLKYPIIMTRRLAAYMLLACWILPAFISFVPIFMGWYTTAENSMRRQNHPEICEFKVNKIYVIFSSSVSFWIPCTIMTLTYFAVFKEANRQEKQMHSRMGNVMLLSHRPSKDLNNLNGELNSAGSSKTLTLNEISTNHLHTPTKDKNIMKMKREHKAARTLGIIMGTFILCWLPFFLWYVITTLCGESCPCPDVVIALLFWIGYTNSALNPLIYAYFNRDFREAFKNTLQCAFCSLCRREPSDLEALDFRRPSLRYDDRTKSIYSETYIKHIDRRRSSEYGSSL

In test [3] the target is T5, AgOctβ2R (AgOctβ2) (Anopheles gambiae, UniProt F5HKI1, L290E).
T5 sequence (F5HKI1 1-526 L290E): T2 sequence (F5HKI1 1-526)

A word on the EC50: it is the concentration that produces a half-maximal response. A high value points to a need for much substance. For the compound `NCC(O)c1ccc(O)cc1` (stereo not drawn) [octopamine], the EC50 is 0.0471 µM on VdOctβ2, 0.0147 µM at AgOctβ2R (AgOctβ2) [1], 0.0573 µM on AgOctβ2R (AgOctβ2) [2] and 0.0456 µM on AmOctβ2.
Take `Cc1ccc(/N=C/N(C)/C=N/c2ccc(C)cc2C)c(C)c1` [amitraz]: the EC50 was 0.0019 µM at VdOctβ2; 0.0108 µM on AgOctβ2R (AgOctβ2) [1]; 0.118 µM at AgOctβ2R (AgOctβ2) [2]; 0.0121 µM at AmOctβ2; 0.0854 µM at AgOctβ2R (AgOctβ2) [3].
